In paper PMC10905675, “INX-315, a Selective CDK2 Inhibitor, Induces Cell Cycle Arrest and Senescence in Solid Tumors” (Cancer Discovery, 2023):

What was measured:
Test in all cases: SelectScreen LanthaScreen Binding
Details in all cases: INX-0315 at 100nM
NEK8 = molecular target: T1, NEK8 (Homo sapiens, UniProt Q86SG6)
T1 construct: purchased Thermo Fisher Scientific SelectScreen (plus Nanosyn / Reaction Biology for CDK/cyclin lines)
From the text: (§1) INX-315 was first evaluated in the SelectScreen Biochemical Kinase Profiling at Thermo Fisher Scientific (Madison, WI). The primary screen consisted of INX-315 dosed at a single concentration of 100 nmol/L in 1% DMSO across each platform within the SelectScreen array of assays, LanthaScreen Eu Kinase Binding Assay; AdaptaScreen; and Z'LyteScreen using preestablished conditions at Thermo Fisher Scientific as shown in Supplementary Table S2. […] The follow-up screen consisted of 10-point dose–response curves for INX-315 from 1 µmol/L to 0.0495 nmol/L.

[1] = molecular target: T2, MAP2K1 (MEK1) S218D S222D (Homo sapiens, UniProt Q02750, S218D/S222D)
T2 construct: purchased Thermo Fisher Scientific SelectScreen (plus Nanosyn / Reaction Biology for CDK/cyclin lines)
T2 sequence (Q02750 whole entry S218D/S222D): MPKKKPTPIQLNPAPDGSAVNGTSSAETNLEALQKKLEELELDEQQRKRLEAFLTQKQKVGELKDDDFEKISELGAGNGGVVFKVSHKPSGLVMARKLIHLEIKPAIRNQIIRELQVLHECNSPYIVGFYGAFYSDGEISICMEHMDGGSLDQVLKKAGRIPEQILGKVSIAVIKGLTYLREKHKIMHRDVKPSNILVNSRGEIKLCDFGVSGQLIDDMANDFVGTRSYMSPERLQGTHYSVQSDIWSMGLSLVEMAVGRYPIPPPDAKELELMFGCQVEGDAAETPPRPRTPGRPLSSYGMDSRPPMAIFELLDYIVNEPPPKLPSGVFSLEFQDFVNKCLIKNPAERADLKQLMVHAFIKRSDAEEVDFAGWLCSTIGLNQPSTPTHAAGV
From the text: as §1

BMPR1A (ALK3) = molecular target: T3, BMPR1A (ALK3) (Homo sapiens, UniProt P36894)
T3 construct: purchased Thermo Fisher Scientific SelectScreen (plus Nanosyn / Reaction Biology for CDK/cyclin lines)
From the text: as §1

ACVRL1 (ALK1) = molecular target: T4, ACVRL1 (ALK1) (Homo sapiens, UniProt P37023)
T4 construct: purchased Thermo Fisher Scientific SelectScreen (plus Nanosyn / Reaction Biology for CDK/cyclin lines)
From the text: as §1

CAMKK1 (CAMKKA) = molecular target: T5, CAMKK1 (CAMKKA) (Homo sapiens, UniProt Q8N5S9)
T5 construct: purchased Thermo Fisher Scientific SelectScreen (plus Nanosyn / Reaction Biology for CDK/cyclin lines)
From the text: as §1

ALK F1174L = molecular target: T6, ALK F1174L (Homo sapiens, UniProt Q9UM73, F1174L)
T6 construct: purchased Thermo Fisher Scientific SelectScreen (plus Nanosyn / Reaction Biology for CDK/cyclin lines)
T6 sequence (Q9UM73 19-1620 F1174L): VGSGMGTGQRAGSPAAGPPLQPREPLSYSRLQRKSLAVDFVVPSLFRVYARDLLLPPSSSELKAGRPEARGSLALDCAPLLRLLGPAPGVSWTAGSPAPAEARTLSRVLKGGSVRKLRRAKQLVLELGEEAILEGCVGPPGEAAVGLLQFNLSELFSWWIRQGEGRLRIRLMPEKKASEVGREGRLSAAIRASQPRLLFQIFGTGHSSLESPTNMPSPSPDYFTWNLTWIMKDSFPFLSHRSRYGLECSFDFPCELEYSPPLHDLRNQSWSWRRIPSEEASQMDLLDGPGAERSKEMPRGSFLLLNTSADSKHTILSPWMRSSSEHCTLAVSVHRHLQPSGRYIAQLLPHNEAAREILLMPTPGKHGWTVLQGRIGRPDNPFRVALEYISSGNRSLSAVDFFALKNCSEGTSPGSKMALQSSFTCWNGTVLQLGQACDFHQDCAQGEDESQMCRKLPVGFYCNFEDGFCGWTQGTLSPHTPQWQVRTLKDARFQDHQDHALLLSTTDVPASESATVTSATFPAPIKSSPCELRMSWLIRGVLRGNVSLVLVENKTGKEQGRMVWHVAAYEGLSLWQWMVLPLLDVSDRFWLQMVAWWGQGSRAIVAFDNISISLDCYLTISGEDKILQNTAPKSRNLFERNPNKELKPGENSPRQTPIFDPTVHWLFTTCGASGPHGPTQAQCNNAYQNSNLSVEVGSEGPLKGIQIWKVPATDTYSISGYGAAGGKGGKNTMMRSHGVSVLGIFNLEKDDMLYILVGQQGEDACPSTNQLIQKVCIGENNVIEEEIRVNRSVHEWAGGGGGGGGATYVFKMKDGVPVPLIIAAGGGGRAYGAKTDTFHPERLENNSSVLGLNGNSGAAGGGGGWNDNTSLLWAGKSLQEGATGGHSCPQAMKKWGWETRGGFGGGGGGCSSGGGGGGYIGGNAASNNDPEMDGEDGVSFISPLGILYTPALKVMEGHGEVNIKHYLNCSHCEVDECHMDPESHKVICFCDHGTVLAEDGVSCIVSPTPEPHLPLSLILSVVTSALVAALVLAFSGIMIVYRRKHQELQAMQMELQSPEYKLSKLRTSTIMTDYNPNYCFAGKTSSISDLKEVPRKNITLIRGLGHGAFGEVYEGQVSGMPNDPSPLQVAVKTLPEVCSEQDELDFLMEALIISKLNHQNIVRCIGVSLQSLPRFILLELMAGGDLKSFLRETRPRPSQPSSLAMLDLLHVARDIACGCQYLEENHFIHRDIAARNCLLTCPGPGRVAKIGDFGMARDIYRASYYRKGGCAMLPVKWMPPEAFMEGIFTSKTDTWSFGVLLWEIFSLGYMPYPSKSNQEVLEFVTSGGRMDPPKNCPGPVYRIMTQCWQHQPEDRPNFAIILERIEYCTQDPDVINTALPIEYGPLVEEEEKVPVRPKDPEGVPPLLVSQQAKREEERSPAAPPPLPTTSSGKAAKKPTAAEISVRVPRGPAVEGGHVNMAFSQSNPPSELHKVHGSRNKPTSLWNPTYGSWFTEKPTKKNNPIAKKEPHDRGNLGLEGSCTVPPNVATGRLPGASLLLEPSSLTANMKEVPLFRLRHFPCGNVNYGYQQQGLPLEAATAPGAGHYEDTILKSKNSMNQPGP
From the text: as §1

TNK2 (ACK) = molecular target: T7, TNK2 (ACK) (Homo sapiens, UniProt Q07912)
T7 construct: purchased Thermo Fisher Scientific SelectScreen (plus Nanosyn / Reaction Biology for CDK/cyclin lines)
From the text: as §1

STK38 (NDR) = molecular target: T8, STK38 (NDR) (Homo sapiens, UniProt Q15208)
T8 construct: purchased Thermo Fisher Scientific SelectScreen (plus Nanosyn / Reaction Biology for CDK/cyclin lines)
T8 sequence (Q15208 whole entry): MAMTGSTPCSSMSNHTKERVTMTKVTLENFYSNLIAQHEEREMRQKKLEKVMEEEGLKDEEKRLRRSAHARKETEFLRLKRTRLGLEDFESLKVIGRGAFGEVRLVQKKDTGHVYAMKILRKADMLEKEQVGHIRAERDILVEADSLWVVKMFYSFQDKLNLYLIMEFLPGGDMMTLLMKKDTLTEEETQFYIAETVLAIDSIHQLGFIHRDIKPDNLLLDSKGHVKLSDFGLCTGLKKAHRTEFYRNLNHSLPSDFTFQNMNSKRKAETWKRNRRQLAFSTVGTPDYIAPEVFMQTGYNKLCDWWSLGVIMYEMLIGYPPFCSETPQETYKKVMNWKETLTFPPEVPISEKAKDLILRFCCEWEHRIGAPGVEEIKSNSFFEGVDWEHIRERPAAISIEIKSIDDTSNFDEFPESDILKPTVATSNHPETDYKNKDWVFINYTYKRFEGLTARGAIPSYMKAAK
From the text: as §1

ABL1 H396P = molecular target: T9, ABL1 H396P (Homo sapiens, UniProt P00519, H396P)
T9 construct: purchased Thermo Fisher Scientific SelectScreen (plus Nanosyn / Reaction Biology for CDK/cyclin lines)
From the text: as §1

ALK R1275Q = molecular target: T10, ALK R1275Q (Homo sapiens, UniProt Q9UM73, R1275Q)
T10 construct: purchased Thermo Fisher Scientific SelectScreen (plus Nanosyn / Reaction Biology for CDK/cyclin lines)
From the text: as §1

ACVR2B = molecular target: T11, ACVR2B (Homo sapiens, UniProt Q13705)
T11 construct: purchased Thermo Fisher Scientific SelectScreen (plus Nanosyn / Reaction Biology for CDK/cyclin lines)
From the text: as §1

PLK4 = molecular target: T12, PLK4 (Homo sapiens, UniProt O00444)
T12 construct: purchased Thermo Fisher Scientific SelectScreen (plus Nanosyn / Reaction Biology for CDK/cyclin lines)
From the text: as §1

CDK11 (Inactive) = molecular target: T13, CDK11 (Inactive) (Homo sapiens, UniProt Q9BWU1)
T13 construct: purchased Thermo Fisher Scientific SelectScreen (plus Nanosyn / Reaction Biology for CDK/cyclin lines)
T13 sequence (Q9BWU1 whole entry): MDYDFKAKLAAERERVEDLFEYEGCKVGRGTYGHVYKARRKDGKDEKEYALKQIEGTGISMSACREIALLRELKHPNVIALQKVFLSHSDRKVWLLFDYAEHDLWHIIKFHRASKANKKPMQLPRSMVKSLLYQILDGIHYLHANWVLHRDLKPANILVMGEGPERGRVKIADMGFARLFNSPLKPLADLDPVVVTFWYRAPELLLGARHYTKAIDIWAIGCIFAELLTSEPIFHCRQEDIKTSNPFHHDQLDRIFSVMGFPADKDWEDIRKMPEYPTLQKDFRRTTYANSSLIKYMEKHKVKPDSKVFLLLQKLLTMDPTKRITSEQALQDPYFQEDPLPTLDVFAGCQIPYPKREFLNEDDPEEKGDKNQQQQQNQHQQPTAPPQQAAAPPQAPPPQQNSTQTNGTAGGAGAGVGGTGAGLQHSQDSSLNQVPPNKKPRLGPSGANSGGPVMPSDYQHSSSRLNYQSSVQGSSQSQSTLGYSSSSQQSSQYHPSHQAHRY
From the text: as §1

ICK = molecular target: T14, ICK (Homo sapiens, UniProt Q9UPZ9)
T14 construct: purchased Thermo Fisher Scientific SelectScreen (plus Nanosyn / Reaction Biology for CDK/cyclin lines)
From the text: as §1

CDK8/cyclin C = molecular target: T15, CDK8/cyclin C (Homo sapiens, UniProt P49336)
T15 construct: purchased Thermo Fisher Scientific SelectScreen (plus Nanosyn / Reaction Biology for CDK/cyclin lines)
From the text: as §1

DDR2 T654M = molecular target: T16, DDR2 T654M (Homo sapiens, UniProt Q16832, T654M)
T16 construct: purchased Thermo Fisher Scientific SelectScreen (plus Nanosyn / Reaction Biology for CDK/cyclin lines)
From the text: as §1

CAMKK2 (CaMKK beta) = molecular target: T17, CAMKK2 (CaMKK beta) (Homo sapiens, UniProt Q96RR4)
T17 construct: purchased Thermo Fisher Scientific SelectScreen (plus Nanosyn / Reaction Biology for CDK/cyclin lines)
From the text: as §1

STK39 (STLK3) = molecular target: T18, STK39 (STLK3) (Homo sapiens, UniProt Q9UEW8)
T18 construct: purchased Thermo Fisher Scientific SelectScreen (plus Nanosyn / Reaction Biology for CDK/cyclin lines)
From the text: as §1

ULK1 = molecular target: T19, ULK1 (Homo sapiens, UniProt O75385)
T19 construct: purchased Thermo Fisher Scientific SelectScreen (plus Nanosyn / Reaction Biology for CDK/cyclin lines)
From the text: as §1

BMPR1B (ALK6) = molecular target: T20, BMPR1B (ALK6) (Homo sapiens, UniProt O00238)
T20 construct: purchased Thermo Fisher Scientific SelectScreen (plus Nanosyn / Reaction Biology for CDK/cyclin lines)
From the text: as §1

BRAF V599E = molecular target: T21, BRAF V599E (Homo sapiens, UniProt P15056, V600E)
T21 construct: purchased Thermo Fisher Scientific SelectScreen (plus Nanosyn / Reaction Biology for CDK/cyclin lines)
From the text: as §1

DDR2 = molecular target: T22, DDR2 (Homo sapiens, UniProt Q16832)
T22 construct: purchased Thermo Fisher Scientific SelectScreen (plus Nanosyn / Reaction Biology for CDK/cyclin lines)
T22 sequence (Q16832 22-855): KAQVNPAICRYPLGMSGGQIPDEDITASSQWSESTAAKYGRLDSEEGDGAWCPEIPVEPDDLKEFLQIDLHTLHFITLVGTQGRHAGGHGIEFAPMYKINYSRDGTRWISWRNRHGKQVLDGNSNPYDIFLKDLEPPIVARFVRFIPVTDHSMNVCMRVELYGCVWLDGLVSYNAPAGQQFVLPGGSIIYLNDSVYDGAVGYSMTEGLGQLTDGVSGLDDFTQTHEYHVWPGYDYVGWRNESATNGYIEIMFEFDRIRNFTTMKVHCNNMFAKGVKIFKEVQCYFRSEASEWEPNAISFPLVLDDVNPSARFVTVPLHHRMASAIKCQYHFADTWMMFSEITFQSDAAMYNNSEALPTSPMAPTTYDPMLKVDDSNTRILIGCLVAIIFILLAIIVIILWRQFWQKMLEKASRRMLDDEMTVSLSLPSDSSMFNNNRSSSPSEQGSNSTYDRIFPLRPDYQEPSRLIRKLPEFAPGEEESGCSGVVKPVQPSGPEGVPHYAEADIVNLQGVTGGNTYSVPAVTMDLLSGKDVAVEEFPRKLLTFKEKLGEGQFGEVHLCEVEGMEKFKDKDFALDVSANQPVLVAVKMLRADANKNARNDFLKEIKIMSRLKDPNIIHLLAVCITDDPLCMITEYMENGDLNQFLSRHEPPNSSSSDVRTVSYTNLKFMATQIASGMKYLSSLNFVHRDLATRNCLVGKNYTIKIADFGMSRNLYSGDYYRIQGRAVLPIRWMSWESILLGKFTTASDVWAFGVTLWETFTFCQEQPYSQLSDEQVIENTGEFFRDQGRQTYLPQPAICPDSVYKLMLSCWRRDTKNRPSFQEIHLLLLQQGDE
From the text: as §1

RAF1 (cRAF) Y340D Y341D = molecular target: T23, RAF1 (cRAF) Y340D Y341D (Homo sapiens, UniProt P04049, Y340D/Y341D)
T23 construct: purchased Thermo Fisher Scientific SelectScreen (plus Nanosyn / Reaction Biology for CDK/cyclin lines)
From the text: as §1

MASTL = molecular target: T24, MASTL (Homo sapiens, UniProt Q96GX5)
T24 construct: purchased Thermo Fisher Scientific SelectScreen (plus Nanosyn / Reaction Biology for CDK/cyclin lines)
T24 sequence (Q96GX5 whole entry): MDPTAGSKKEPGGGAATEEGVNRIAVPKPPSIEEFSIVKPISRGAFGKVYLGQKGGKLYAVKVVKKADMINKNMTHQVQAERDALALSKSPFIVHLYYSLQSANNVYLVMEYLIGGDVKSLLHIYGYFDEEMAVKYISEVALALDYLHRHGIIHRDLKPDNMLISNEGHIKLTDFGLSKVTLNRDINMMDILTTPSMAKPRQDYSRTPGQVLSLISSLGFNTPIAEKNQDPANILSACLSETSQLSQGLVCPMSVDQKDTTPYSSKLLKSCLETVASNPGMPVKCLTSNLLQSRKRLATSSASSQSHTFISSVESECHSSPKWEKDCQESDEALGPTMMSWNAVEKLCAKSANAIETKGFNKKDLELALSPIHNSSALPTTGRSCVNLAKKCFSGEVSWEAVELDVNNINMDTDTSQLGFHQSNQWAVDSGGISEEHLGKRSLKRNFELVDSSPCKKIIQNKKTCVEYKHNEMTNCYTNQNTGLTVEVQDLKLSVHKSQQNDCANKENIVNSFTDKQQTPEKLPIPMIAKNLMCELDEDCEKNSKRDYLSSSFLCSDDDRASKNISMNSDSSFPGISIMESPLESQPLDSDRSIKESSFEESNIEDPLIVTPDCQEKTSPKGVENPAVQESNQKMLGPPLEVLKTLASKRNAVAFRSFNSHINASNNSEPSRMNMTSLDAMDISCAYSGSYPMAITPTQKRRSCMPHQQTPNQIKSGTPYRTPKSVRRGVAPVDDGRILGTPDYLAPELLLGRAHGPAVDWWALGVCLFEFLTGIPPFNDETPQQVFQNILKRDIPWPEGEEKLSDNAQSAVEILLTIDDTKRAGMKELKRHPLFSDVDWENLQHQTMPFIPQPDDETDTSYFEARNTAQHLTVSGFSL
From the text: as §1

MAP4K1 (HPK1) = molecular target: T25, MAP4K1 (HPK1) (Homo sapiens, UniProt Q92918)
T25 construct: purchased Thermo Fisher Scientific SelectScreen (plus Nanosyn / Reaction Biology for CDK/cyclin lines)
From the text: as §1

SIK3 = molecular target: T26, SIK3 (Homo sapiens, UniProt Q9Y2K2)
T26 construct: purchased Thermo Fisher Scientific SelectScreen (plus Nanosyn / Reaction Biology for CDK/cyclin lines)
From the text: as §1

RET V804M = molecular target: T27, RET V804M (Homo sapiens, UniProt P07949, V804M)
T27 construct: purchased Thermo Fisher Scientific SelectScreen (plus Nanosyn / Reaction Biology for CDK/cyclin lines)
From the text: as §1

EGFR (ErbB1) d746-750 = molecular target: T28, EGFR (ErbB1) d746-750 (Homo sapiens, UniProt P00533, DEL746-750)
T28 construct: purchased Thermo Fisher Scientific SelectScreen (plus Nanosyn / Reaction Biology for CDK/cyclin lines)
From the text: as §1

MAP2K4 (MEK4) = molecular target: T29, MAP2K4 (MEK4) (Homo sapiens, UniProt P45985)
T29 construct: purchased Thermo Fisher Scientific SelectScreen (plus Nanosyn / Reaction Biology for CDK/cyclin lines)
T29 sequence (P45985 whole entry): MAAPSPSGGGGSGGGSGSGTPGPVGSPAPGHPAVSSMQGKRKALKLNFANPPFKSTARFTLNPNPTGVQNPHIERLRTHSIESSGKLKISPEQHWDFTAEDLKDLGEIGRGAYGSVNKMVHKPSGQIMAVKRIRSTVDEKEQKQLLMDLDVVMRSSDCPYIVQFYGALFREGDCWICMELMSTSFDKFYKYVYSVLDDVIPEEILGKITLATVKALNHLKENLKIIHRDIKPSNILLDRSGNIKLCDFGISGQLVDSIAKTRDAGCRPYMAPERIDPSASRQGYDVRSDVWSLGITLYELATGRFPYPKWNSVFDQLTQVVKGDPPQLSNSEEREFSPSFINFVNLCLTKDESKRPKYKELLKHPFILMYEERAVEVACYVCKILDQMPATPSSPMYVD
From the text: as §1

EPHA3 = molecular target: T30, EPHA3 (Homo sapiens, UniProt P29320)
T30 construct: purchased Thermo Fisher Scientific SelectScreen (plus Nanosyn / Reaction Biology for CDK/cyclin lines)
From the text: as §1

TESK2 = molecular target: T31, TESK2 (Homo sapiens, UniProt Q96S53)
T31 construct: purchased Thermo Fisher Scientific SelectScreen (plus Nanosyn / Reaction Biology for CDK/cyclin lines)
From the text: as §1

DMPK = molecular target: T32, DMPK (Homo sapiens, UniProt Q09013)
T32 construct: purchased Thermo Fisher Scientific SelectScreen (plus Nanosyn / Reaction Biology for CDK/cyclin lines)
From the text: as §1

MAP2K5 (MEK5) = molecular target: T33, MAP2K5 (MEK5) (Homo sapiens, UniProt Q13163)
T33 construct: purchased Thermo Fisher Scientific SelectScreen (plus Nanosyn / Reaction Biology for CDK/cyclin lines)
From the text: as §1

NLK = molecular target: T34, NLK (Homo sapiens, UniProt Q9UBE8)
T34 construct: purchased Thermo Fisher Scientific SelectScreen (plus Nanosyn / Reaction Biology for CDK/cyclin lines)
From the text: as §1

WEE1 = molecular target: T35, WEE1 (Homo sapiens, UniProt P30291)
T35 construct: purchased Thermo Fisher Scientific SelectScreen (plus Nanosyn / Reaction Biology for CDK/cyclin lines)
From the text: as §1

CDK14 (PFTK1)/cyclin Y = molecular target: T36, CDK14 (PFTK1)/cyclin Y (Homo sapiens, UniProt O94921)
T36 construct: purchased Thermo Fisher Scientific SelectScreen (plus Nanosyn / Reaction Biology for CDK/cyclin lines)
From the text: as §1

[2] = molecular target: T37, MAP2K6 (MKK6) S207E T211E (Homo sapiens, UniProt P52564, S207E/T211E)
T37 construct: purchased Thermo Fisher Scientific SelectScreen (plus Nanosyn / Reaction Biology for CDK/cyclin lines)
From the text: as §1

Compound `NS(=O)(=O)c1ccc(Nc2ncc3cc4n(c3n2)C2(CCCCC2)C(=O)NN4)cc1` [INX-315] has an inhibition at 0.1 µM (NEK8) of 0%, an inhibition at 0.1 µM [1] of 1% and an inhibition at 0.1 µM (BMPR1A (ALK3)) of 8%. For the same compound, the inhibition at 0.1 µM (ACVRL1 (ALK1)) was 2%, the inhibition at 0.1 µM (CAMKK1 (CAMKKA)) was 6% and the inhibition at 0.1 µM (ALK F1174L) was 12%. The inhibition at 0.1 µM (TNK2 (ACK)) was 0%, the inhibition at 0.1 µM (STK38 (NDR)) was 0% and the inhibition at 0.1 µM (ABL1 H396P) was 12%. For the same compound, the inhibition at 0.1 µM (ALK R1275Q) was 10%, the inhibition at 0.1 µM (ACVR2B) was -2% and the inhibition at 0.1 µM (PLK4) was 29%. For the same compound, the inhibition at 0.1 µM (CDK11 (Inactive)) was 2%, the inhibition at 0.1 µM (ICK) was 28% and the inhibition at 0.1 µM (CDK8/cyclin C) was 0%. For the same compound, the inhibition at 0.1 µM (DDR2 T654M) was 26%, the inhibition at 0.1 µM (CAMKK2 (CaMKK beta)) was 3% and the inhibition at 0.1 µM (STK39 (STLK3)) was 14%. It also gave an inhibition at 0.1 µM (ULK1) of 1%, an inhibition at 0.1 µM (BMPR1B (ALK6)) of 1% and an inhibition at 0.1 µM (BRAF V599E) of -2%. The inhibition at 0.1 µM (DDR2) was 18%, the inhibition at 0.1 µM (RAF1 (cRAF) Y340D Y341D) was -2% and the inhibition at 0.1 µM (MASTL) was 0%. For the same compound, the inhibition at 0.1 µM (MAP4K1 (HPK1)) was 17%, the inhibition at 0.1 µM (SIK3) was 2% and the inhibition at 0.1 µM (RET V804M) was 21%. For the same compound, the inhibition at 0.1 µM (EGFR (ErbB1) d746-750) was 0%, the inhibition at 0.1 µM (MAP2K4 (MEK4)) was 17% and the inhibition at 0.1 µM (EPHA3) was -1%. It also gave an inhibition at 0.1 µM (TESK2) of -1%, an inhibition at 0.1 µM (DMPK) of 6% and an inhibition at 0.1 µM (MAP2K5 (MEK5)) of 27%. The inhibition at 0.1 µM (NLK) was 0%, the inhibition at 0.1 µM (WEE1) was 4% and the inhibition at 0.1 µM (CDK14 (PFTK1)/cyclin Y) was 24%. It also gave an inhibition at 0.1 µM [2] of 7%.
